Reference: patent publication US20240409536A1, “COMPOUNDS AND METHODS FOR MODULATING SPLICING” (REMIX THERAPEUTICS INC., priority 2021, published 2024)
Structures can show the parent of a compound that is named as a salt.

Columns and labels:
[1] = system: HiBiT-tagged MYB protein; experiment: HiBiT protein abundance assay, MYB (K562 HiBiT knock-in cells); format: cell-based, human; settings: 24 hours
Experimental: (§1) Compounds described herein were used to screen for effects on quantitative protein abundance using a HiBit assay system (Promega). Quantitative protein abundance was determined by measuring the protein levels of HiBit-tagged protein targets expressed in cell culture via luminescence using the Nano-Glo HiBiT Lytic Detection System, which uses a split complementation assay format to reconstitute NanoBiT enzyme to generate a luminescent signal. A protein abundance assay was developed such that endogenous protein targets could be modified with the HiBiT peptide tag and their abundance could be assessed after compound treatment. Briefly, K562 cell lines containing a HiBiT-modification were treated with various compounds described herein (e.g., compounds of Formulas (I), (II), or (III)). After treatment for 24 hours, the protein abundance of a specific target was determined by measuring luminescence.
(§2) • Promega Nano-Glo HiBiT Lytic Detection System (cat #N3030) • Corning 384-well TC-treated microplates (cat #3570) • Synthego Engineered Cells Knock-In Clones
(§3) Cells were maintained in IMDM with 10% FBS. Before the assay, cells were diluted with […] growth media (IMDM+1% FBS media) and were seeded in a 384-well plate at a density of 10000 cells/well (for each cell line listed in Table 6). Each compound was prepared as a 10-point 3-fold serial dilution in DMSO with the top dose at a final concentration of 10 μM in the well. Unmodified K562 cells were added at the previously specified density with DMSO to serve as an assay baseline and positive control (PC) and DMSO only with the respective modified cell lines was added to the negative control (NC) columns. Final DMSO concentration was kept at or below 0.25%. Treated cell plates were placed in an incubator at 37° C. with 5% CO2 for 24 hours. After 24 hours, 25 μL of Complete HiBit Lytic reagent was added to each well at room temperature (e.g. one plate requiring 10 mL Lytic Buffer, 100 μL LgBiT Protein, 200 μL Lytic Substrate), shaken for 5 minutes at 600 RPM, then left to sit for 10 minutes for signal to stabilize before reading on a Spark Cyto plate reader (Tecan) with a 500 ms measurement time.
(§4) To determine compound effects on protein abundance of each target in Table 6, the percent response for each respective cell line was calculated at each compound concentration as follows:
(§5) For the normalized response at each concentration, a four-parameter logistical regression was fit to the data and the response was interpolated at the 50% value to determine a concentration for protein abundance at 50% (IC50) the untreated control.

[2] = system: HiBiT-tagged HTT protein; experiment: HiBiT protein abundance assay, HTT (K562 HiBiT knock-in cells); format: cell-based, human; settings: 24 hours
Experimental: as §1, §2, §3, §4, §5

[3] = system: K562 cells; experiment: Cell Titer Glo 2.0 cell viability assay in K562 cells; settings: 72 hours
Experimental: Compounds described herein were screened for toxicity in K562 (human chronic myelogenous leukemia) and SH-SY5Y (human neuroblastoma) cells using a Cell Titer Glo 2.0 assay.
Cells were plated at 500 cells/well (K562 cells) in 45 μL of IMDM supplemented with 10% FBS in a 384-well opaque plate. Wells containing only medium were used as a blank control. Test compounds (e.g., compounds of Formula (I), (II), or (III)) were first serially diluted in DMSO then diluted 1:100 with IMDM+10% FBS. The final concentration of DMSO was 0.1% in each well. The cells were incubated for 72 hours at 37° C. and 5% CO2 before assaying with Cell Titer Glo 2.0 reagent.

[4] = system: Target C; experiment: HiBiT protein abundance assay, Target C (K562 HiBiT knock-in cells); format: cell-based, human; settings: 24 hours
Experimental: as §2, §3, §4, §5

[5] = system: MYB mRNA; experiment: Splicing RT-qPCR assay, MYB canonical (CJ) and alternative (AJ) junction mRNA; format: cell-based; settings: Homo sapiens, A673 or K562 cells, 24 hours; for IC50: decrease in canonical junction mRNA; for AC50: increase in alternative junction mRNA
Outline: (§6)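 Splice switching was scored by qPCR detection of the new alternative-exon junction (AJ) alongside the canonical junction (CJ). Cell lines A673 or K562 received compound 24 h, top dose 10 uM final.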

[6] = system: HTT mRNA; experiment: Splicing RT-qPCR assay, HTT canonical (CJ) and alternative (AJ) junction mRNA; format: cell-based; settings: Homo sapiens, A673 or K562 cells, 24 hours; for IC50: decrease in canonical junction mRNA; for AC50: increase in alternative junction mRNA
Outline: as §6

[7] = system: MYB mRNA; experiment: Gene panel canonical junction qPCR assay, MYB CJ mRNA decrease; format: cell-based, human; settings: Homo sapiens, canonical junction qPCR, read-out: MYB IC50 (decrease in CJ mRNA levels)
Outline: (§7)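 IC50 values describe loss of canonical-junction transcript, fitted by 4-parameter logistic to percent response derived from fixed ΔCt windows. Read-out: RT-qPCR on lysates of compound-treated K562 or A673 cells, probes overlapping the exon junction, ΔΔCt versus housekeeping gene and DMSO control.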

[8] = system: Target C mRNA; experiment: Gene panel canonical junction qPCR assay, Target C CJ mRNA decrease; format: cell-based; settings: Homo sapiens, canonical junction qPCR, read-out: Target C IC50 (decrease in CJ mRNA levels)
Outline: as §7

[9] = system: SMN2 mRNA; experiment: Gene panel canonical junction qPCR assay, SMN2 CJ mRNA decrease; format: cell-based, human; settings: Homo sapiens, canonical junction qPCR, read-out: SMN2 IC50 (decrease in CJ mRNA levels)
Outline: as §7

[10] = system: HTT mRNA; experiment: Gene panel canonical junction qPCR assay, HTT CJ mRNA decrease; format: cell-based, human; settings: Homo sapiens, canonical junction qPCR, read-out: HTT IC50 (decrease in CJ mRNA levels)
Outline: as §7

Compound	IC50 [1]	IC50 [2]	Viability [3]	IC50 [4]	IC50 [5]	AC50 [5]	IC50 [6]	AC50 [6]	IC50 [7]	IC50 [8]	IC50 [9]	IC50 [10]
Cc1cn2cc(NC(=O)c3ccc(N4CCNCC4)c4ccnnc34)cc(F)c2n1 [Compound 101]	< 0.1 µM	0.1 to 1 µM	B (B represents 100-1000 nM)	0.1 to 1 µM	–	–	–	–	–	–	–	–
Cc1cn2cc(NC(=O)c3ccc(C4CCNCC4)c4ccnnc34)cc(F)c2n1 [Compound 103]	< 0.1 µM	0.1 to 1 µM	A (A represents <100 nM)	1 to 10 µM	–	–	–	–	–	–	–	–
Cc1cn2cc(NC(=O)c3ccc(N4CCNCC4)c4cncnc34)cc(F)c2n1 [Compound 112]	< 0.1 µM	0.1 to 1 µM	B (B represents 100-1000 nM)	1 to 10 µM	–	–	–	–	–	–	–	–
Cc1nc2c(F)cc(NC(=O)c3ccc(N4CCNCC4)c4ccnnc34)cc2o1 [Compound 117]	< 0.1 µM	0.1 to 1 µM	B (B represents 100-1000 nM)	1 to 10 µM	–	–	–	–	–	–	–	–
Cc1cn2nc(NC(=O)c3ccc(N4CCNCC4)c4ccnnc34)nc2c(C)n1 [Compound 122]	1 to 10 µM	1 to 10 µM	C (C represents 1000-9999 nM)	1 to 10 µM	–	–	–	–	–	–	–	–
Cc1cn2cc(NC(=O)c3ccc(N4CCNCC4)c4ccnnc34)cc(Cl)c2n1 [Compound 124]	< 0.1 µM	1 to 10 µM	B (B represents 100-1000 nM)	1 to 10 µM	–	–	–	–	–	–	–	–
CCNC1CCN(c2ccc(C(=O)Nc3cc(F)c4nc(C)cn4c3)c3nnccc23)CC1 [Compound 139, 5-[4-(ethylamino)piperidin-1-yl]-N-{8-fluoro-2-methylimidazo[1,2-a]pyridin-6-yl}cinnoline-8-carboxamide]	< 0.1 µM	0.1 to 1 µM	A (A represents <100 nM)	1 to 10 µM	–	–	–	–	–	–	–	–
Cc1cn2cc(NC(=O)c3ccc(N4CCNC(C)C4)c4nccnc34)cc(F)c2n1 (centres unmarked) [Compound 157]	< 0.1 µM	1 to 10 µM	A (A represents <100 nM)	1 to 10 µM	–	–	–	–	–	–	–	–
Cc1cn2cc(NC(=O)c3ccc(N4CCC(N(C)C)CC4)c4nccnc34)cc(F)c2n1 [Compound 158, 8-(4-(dimethylamino)piperidin-1-yl)-N-(8-fluoro-2-methylimidazo[1,2-a]pyridin-6-yl)quinoxaline-5-carboxamide]	0.1 to 1 µM	0.1 to 1 µM	B (B represents 100-1000 nM)	1 to 10 µM	–	–	–	–	–	–	–	–
Cc1cn2cc(NC(=O)c3ccc(N4CCC5(CCN5)CC4)c4ccnnc34)cc(F)c2n1 [Compound 171, 5-{1,7-diazaspiro[3.5]nonan-7-yl}-N-{8-fluoro-2-methylimidazo[1,2-a]pyridin-6-yl}cinnoline-8-carboxamide trifluoroacetate]	< 0.1 µM	0.1 to 1 µM	B (B represents 100-1000 nM)	1 to 10 µM	–	–	–	–	–	–	–	–
Cc1cn2cc(NC(=O)c3ccc(N4CCN[C@H](C)C4)c4nccnc34)cc(F)c2n1 [Compound 188, N-{8-fluoro-2-methylimidazo[1,2-a]pyridin-6-yl}-8-(3-methylpiperazin-1-yl)quinoxaline-5-carboxamide]	< 0.1 µM	1 to 10 µM	B (B represents 100-1000 nM)	1 to 10 µM	–	–	–	–	–	–	–	–
Cc1ccc2c(N3CCC4(CCN4)CC3)ccc(C(=O)Nc3cc(F)c4nc(C)cn4c3)c2n1 [Compound 195, 5-{1,7-diazaspiro[3.5]nonan-7-yl}-N-{8-fluoro-2-methylimidazo[1,2-a]pyridin-6-yl}-2-methylquinoline-8-carboxamide]	< 0.1 µM	0.1 to 1 µM	A (A represents <100 nM)	0.1 to 1 µM	–	–	–	–	–	–	–	–
Cc1cnc2c(C(=O)Nc3cc(F)c4nc(C)cn4c3)ccc(N3CCNCC3)c2n1 [Compound 198]	0.1 to 1 µM	0.1 to 1 µM	B (B represents 100-1000 nM)	0.1 to 1 µM	–	–	–	–	–	–	–	–
CN[C@H]1CCN(c2ccc(C(=O)Nc3cc(F)c4nc(C)cn4c3)c3nc(OC)cnc23)C1 [Compound 203, (S)—N-{8-fluoro-2-methylimidazo[1,2-a]pyridin-6-yl}-3-methoxy-8-[3-(methylamino)pyrrolidin-1-yl]quinoxaline-5-carboxamide; trifluoroacetic acid]	1 to 10 µM	1 to 10 µM	C (C represents 1000-9999 nM)	1 to 10 µM	–	–	–	–	–	–	–	–
COc1cnc2c(C(=O)Nc3cc(F)c4nc(C)cn4c3)ccc(N3CCC(N(C)C)CC3)c2n1 [Compound 224, 8-[4-(dimethylamino)piperidin-1-yl]-N-{8-fluoro-2-methylimidazo[1,2-a]pyridin-6-yl}-2-methoxyquinoxaline-5-carboxamide]	< 0.1 µM	> 10 µM	B (B represents 100-1000 nM)	> 10 µM	–	–	–	–	–	–	–	–
Cc1cn2cc(NC(=O)c3ccc(N4CCN[C@@H](CO)C4)c4nccnc34)cc(F)c2n1 [Compound 361]	0.1 to 1 µM	1 to 10 µM	B (B represents 100-1000 nM)	1 to 10 µM	0.1 to 1 µM	< 0.1 µM	1 to 10 µM	1 to 10 µM	–	–	–	–
COc1ccc2c(N3C[C@H](C)N[C@@H](C)C3)ccc(C(=O)Nc3cc(F)c4nc(C)cn4c3)c2n1 [Compound 385]	–	–	B (B represents 100-1000 nM)	–	< 0.1 µM	< 0.1 µM	1 to 10 µM	1 to 10 µM	< 0.1 µM	> 10 µM	< 0.1 µM	1 to 10 µM
COc1ncc2c(N3C[C@H](C)N[C@@H](C)C3)ccc(C(=O)Nc3cn4cc(C)nc4c(OC)n3)c2n1 [Compound 387]	–	–	B (B represents 100-1000 nM)	–	< 0.1 µM	< 0.1 µM	1 to 10 µM	1 to 10 µM	< 0.1 µM	1 to 10 µM	< 0.1 µM	1 to 10 µM
